{
  "source": "ChEMBL document CHEMBL5154690",
  "about": "“Discovery of a tricyclic farnesoid X receptor agonist HEC96719, a clinical candidate for treatment of non-alcoholic steatohepatitis” (Eur J Med Chem, 2022)",
  "key": {"[1]": {"assay": "Mutagenecity in Salmonella typhimurium TA1535 measured by Ames test", "assay_type": "toxicity", "details": "salmonella enterica subsp. enterica serovar typhimurium"}, "[2]": {"tested_on": "Mus musculus", "assay": "Anti-NASH activity against high fat (HF) diet-induced nonalcoholic steatohepatitis in leptin-deficient ob/ob mouse model assessed as reduction in liver cholesterol level at 3 mg/kg, po administered once daily from week 5 to 10", "assay_type": "functional, organism-based"}, "[3]": {"tested_on": "Mus musculus", "assay": "Anti-NASH activity against high fat (HF) diet-induced nonalcoholic steatohepatitis in leptin-deficient ob/ob mouse model assessed as reduction in NASH activity score (NAS) at 3 mg/kg, po administered once daily from week 5 to 10", "assay_type": "functional, organism-based"}, "[4]": {"assay": "Drug metabolism in feces of Sprague-Dawley rat assessed as production of toxic metabolites at 4.5 mg/kg, po administered as C14-lableled compound with single dose", "assay_type": "ADME, organism-based", "details": "in vivo"}, "[5]": {"assay": "Oral bioavailability in male Beagle dog at 5 mg/kg measured by LC-MS/MS analysis", "assay_type": "ADME, organism-based, Canis lupus familiaris", "details": "in vivo"}, "[6]": {"assay": "Drug recovery in skin of male Sprague-Dawley rat at 4.5 mg/kg, po administered as C14-lableled compound and assessed as radioactivity and measured at 24 hrs", "assay_type": "ADME, organism-based, Skin of body", "details": "in vivo, BLD = below limit of detection"}, "[7]": {"tested_on": "Mus musculus", "assay": "Anti-NASH activity in western style diet-induced nonalcoholic steatohepatitis model of male C57BL/6 mouse assessed as reduction in liver fibrosis at 1 mg/kg, po administered once daily from week 32 to 44", "assay_type": "functional, organism-based"}, "[8]": {"assay": "Half-life in male C57BL/6 mouse at 2 mg/kg, iv measured by LC-MS/MS analysis", "assay_type": "ADME, organism-based", "details": "in vivo"}, "[9]": {"assay": "Ratio of drug level in skin to plasma in male Sprague-Dawley rat at 4.5 mg/kg, po administered as C14-lableled compound and measured at 0.25 to 6 hrs", "assay_type": "ADME, organism-based", "details": "other tissue, time 0.25-6 hrs"}, "[10]": {"assay": "Drug recovery in spleen of male Sprague-Dawley rat at 4.5 mg/kg, po administered as C14-lableled compound and assessed as radioactivity and measured at 1 hr", "assay_type": "ADME, organism-based", "details": "in vivo"}, "[11]": {"assay": "Half-life in male Beagle dog at 5 mg/kg, po measured by LC-MS/MS analysis", "assay_type": "ADME, organism-based, Canis lupus familiaris", "details": "in vivo"}, "[12]": {"assay": "Drug recovery in liver of male Sprague-Dawley rat at 4.5 mg/kg, po administered as C14-lableled compound and assessed as radioactivity and measured at 6 hrs", "assay_type": "ADME, organism-based", "details": "in vivo"}, "[13]": {"assay": "AUC (0 to t) in male Sprague-Dawley rat at 5 mg/kg, po measured by LC-MS/MS analysis", "assay_type": "ADME, organism-based", "set-up": "dose 5 mg/kg, route po", "details": "in vivo"}, "[14]": {"assay": "Clearance in male Beagle dog at 1 mg/kg, iv measured by LC-MS/MS analysis", "assay_type": "ADME, organism-based, Canis lupus familiaris", "details": "in vivo"}, "[15]": {"assay": "Drug recovery in brain of male Sprague-Dawley rat at 4.5 mg/kg, po administered as C14-lableled compound and assessed as radioactivity and measured at 1 hr", "assay_type": "ADME, organism-based", "details": "in vivo"}, "[16]": {"assay": "Mutagenecity in Salmonella typhimurium TA98 measured by Ames test", "assay_type": "toxicity", "details": "salmonella enterica subsp. enterica serovar typhimurium"}, "[17]": {"assay": "Clearance in male C57BL/6 mouse at 2 mg/kg, iv measured by LC-MS/MS analysis", "assay_type": "ADME, organism-based", "details": "in vivo"}, "[18]": {"biological_target": "T1, G-protein coupled bile acid receptor 1 (Homo sapiens, UniProt Q8TDU6)", "T1 sequence (Q8TDU6 whole entry)": "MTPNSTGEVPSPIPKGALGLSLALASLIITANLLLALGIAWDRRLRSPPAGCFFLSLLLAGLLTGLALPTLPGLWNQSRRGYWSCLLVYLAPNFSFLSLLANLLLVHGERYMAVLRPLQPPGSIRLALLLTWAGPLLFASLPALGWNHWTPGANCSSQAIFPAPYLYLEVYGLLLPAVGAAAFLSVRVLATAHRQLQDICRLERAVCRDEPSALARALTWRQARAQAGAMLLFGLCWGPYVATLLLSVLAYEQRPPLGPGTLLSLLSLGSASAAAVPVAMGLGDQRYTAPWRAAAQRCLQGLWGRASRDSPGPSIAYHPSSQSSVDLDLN", "assay": "Agonist activity in human GPBAR1 assessed as increase in intracellular cAMP level", "assay_type": "functional, cell-based"}, "[19]": {"assay": "Mutagenecity in Salmonella typhimurium TA100 measured by Ames test", "assay_type": "toxicity", "details": "salmonella enterica subsp. enterica serovar typhimurium"}, "[20]": {"assay": "Half-life in male Sprague-Dawley rat at 1 mg/kg, iv measured by LC-MS/MS analysis", "assay_type": "ADME, organism-based", "details": "in vivo"}, "[21]": {"assay": "Drug recovery in kidney of male Sprague-Dawley rat at 4.5 mg/kg, po administered as C14-lableled compound and assessed as radioactivity and measured at 0.25 hrs", "assay_type": "ADME, organism-based", "details": "in vivo"}, "[22]": {"biological_target": "Voltage-gated inwardly rectifying potassium channel KCNH2 (Homo sapiens, UniProt Q12809)", "sequence (Q12809 whole entry)": "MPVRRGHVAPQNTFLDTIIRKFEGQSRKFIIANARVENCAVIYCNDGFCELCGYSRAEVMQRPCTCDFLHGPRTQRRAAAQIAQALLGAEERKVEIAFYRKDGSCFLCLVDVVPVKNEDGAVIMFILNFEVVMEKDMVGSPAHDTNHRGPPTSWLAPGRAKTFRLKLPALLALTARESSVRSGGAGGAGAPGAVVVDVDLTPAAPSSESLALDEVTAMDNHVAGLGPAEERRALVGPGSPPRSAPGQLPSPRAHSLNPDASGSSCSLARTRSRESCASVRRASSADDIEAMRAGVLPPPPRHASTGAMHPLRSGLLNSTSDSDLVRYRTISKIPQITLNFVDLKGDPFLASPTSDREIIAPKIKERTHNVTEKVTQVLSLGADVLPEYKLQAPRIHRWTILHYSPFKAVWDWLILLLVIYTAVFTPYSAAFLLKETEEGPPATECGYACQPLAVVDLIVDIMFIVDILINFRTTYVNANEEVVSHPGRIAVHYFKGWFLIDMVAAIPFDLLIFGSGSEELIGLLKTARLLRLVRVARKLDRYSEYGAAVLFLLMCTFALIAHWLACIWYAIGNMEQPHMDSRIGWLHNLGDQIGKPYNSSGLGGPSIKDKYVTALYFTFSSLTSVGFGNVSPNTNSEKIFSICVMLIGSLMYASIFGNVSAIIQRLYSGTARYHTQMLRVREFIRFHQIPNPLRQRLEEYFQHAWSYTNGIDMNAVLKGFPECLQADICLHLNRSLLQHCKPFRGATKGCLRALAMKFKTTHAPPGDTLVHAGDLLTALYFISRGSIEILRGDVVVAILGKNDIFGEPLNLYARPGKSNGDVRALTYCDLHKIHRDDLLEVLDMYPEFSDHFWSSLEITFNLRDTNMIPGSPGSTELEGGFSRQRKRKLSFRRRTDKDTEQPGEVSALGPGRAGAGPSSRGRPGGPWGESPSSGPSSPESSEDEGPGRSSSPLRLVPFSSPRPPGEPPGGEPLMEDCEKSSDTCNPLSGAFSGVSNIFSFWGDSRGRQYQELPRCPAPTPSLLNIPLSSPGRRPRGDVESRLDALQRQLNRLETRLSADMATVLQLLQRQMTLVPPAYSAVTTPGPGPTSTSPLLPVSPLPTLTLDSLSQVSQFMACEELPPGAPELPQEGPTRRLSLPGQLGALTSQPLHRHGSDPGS", "assay": "Inhibition of hERG", "assay_type": "toxicity"}, "[23]": {"tested_on": "Mus musculus", "assay": "Anti-NASH activity against high fat (HF) diet-induced nonalcoholic steatohepatitis in leptin-deficient ob/ob mouse model assessed as reduction in serum ALT level at 3 mg/kg, po administered once daily from week 5 to 10", "assay_type": "functional, organism-based"}, "[24]": {"biological_target": "T2, Estrogen receptor (Homo sapiens, UniProt P03372)", "T2 sequence (P03372 whole entry)": "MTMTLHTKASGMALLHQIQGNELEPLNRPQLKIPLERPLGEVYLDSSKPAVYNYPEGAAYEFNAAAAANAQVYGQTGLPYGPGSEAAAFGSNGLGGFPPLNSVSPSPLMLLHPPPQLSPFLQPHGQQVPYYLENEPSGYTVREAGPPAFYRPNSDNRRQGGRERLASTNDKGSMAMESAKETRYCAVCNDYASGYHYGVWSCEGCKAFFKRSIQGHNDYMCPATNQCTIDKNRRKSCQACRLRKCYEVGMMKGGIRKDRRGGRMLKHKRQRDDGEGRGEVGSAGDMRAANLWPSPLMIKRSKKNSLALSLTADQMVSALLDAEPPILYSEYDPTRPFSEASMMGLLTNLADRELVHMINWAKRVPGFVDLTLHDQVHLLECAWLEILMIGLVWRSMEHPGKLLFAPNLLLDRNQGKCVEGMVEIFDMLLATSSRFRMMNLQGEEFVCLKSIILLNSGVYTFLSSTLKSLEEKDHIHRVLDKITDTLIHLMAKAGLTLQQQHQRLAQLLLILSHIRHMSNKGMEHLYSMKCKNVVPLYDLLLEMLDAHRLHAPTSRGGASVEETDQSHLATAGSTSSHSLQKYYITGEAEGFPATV", "assay": "Agonist activity at estrogen receptor alpha (unknown origin)"}, "[25]": {"assay": "Drug metabolism in urine of Sprague-Dawley rat assessed as production of toxic metabolites at 4.5 mg/kg, po administered as C14-lableled compound with single dose", "assay_type": "ADME, organism-based", "details": "in vivo"}, "[26]": {"assay": "Drug recovery in stomach of male Sprague-Dawley rat at 4.5 mg/kg, po administered as C14-lableled compound and assessed as radioactivity and measured at 1 hr", "assay_type": "ADME, organism-based", "details": "in vivo"}},
  "note": "Active and inactive are the calls of the source. The calls are words filed in the database; no cut-off is given here.",
  "data": [
    {"smiles": "O=C(O)c1ccc2c(c1)Oc1ccc(OCc3c(-c4c(Cl)cccc4Cl)noc3C3CC3)nc1C1(CC1)C2", "values": [
      {"measurement": "Activity", "setting": "[1]", "result": "Non-Toxic"},
      {"measurement": "Activity", "setting": "[2]", "result": "Active"},
      {"measurement": "Activity", "setting": "[3]", "result": "Active"},
      {"measurement": "Drug metabolism", "setting": "[4]", "result": "Metabolite_Notdetected"},
      {"measurement": "bioavailability", "setting": "[5]", "result": 42.3, "unit": "%"},
      {"measurement": "Drug recovery", "setting": "[6]", "result": "Bld"},
      {"measurement": "Activity", "setting": "[7]", "result": "Active"},
      {"measurement": "half-life", "setting": "[8]", "result": 28.2, "unit": "min"},
      {"measurement": "Ratio", "setting": "[9]", "result": 0.56},
      {"measurement": "Drug recovery", "setting": "[10]", "result": 104, "unit": "ngequiv/g"},
      {"measurement": "half-life", "setting": "[11]", "result": 205, "unit": "min"},
      {"measurement": "Drug recovery", "setting": "[12]", "result": 521, "unit": "ngequiv/g"},
      {"measurement": "AUC(0-t)", "setting": "[13]", "result": 1180, "unit": "ng·h/mL"},
      {"measurement": "clearance", "setting": "[14]", "result": 18.4, "unit": "mL/min/kg"},
      {"measurement": "Drug recovery", "setting": "[15]", "result": 38.2, "unit": "ngequiv/g"},
      {"measurement": "Activity", "setting": "[16]", "result": "Non-Toxic"},
      {"measurement": "clearance", "setting": "[17]", "result": 160, "unit": "mL/min/kg"},
      {"measurement": "EC50", "setting": "[18]", "result": "> 10", "unit": "µM"},
      {"measurement": "Activity", "setting": "[19]", "result": "Non-Toxic"},
      {"measurement": "half-life", "setting": "[20]", "result": 16.8, "unit": "min"},
      {"measurement": "Drug recovery", "setting": "[21]", "result": 281, "unit": "ngequiv/g"},
      {"measurement": "IC50", "setting": "[22]", "result": "> 5.24", "unit": "µM"},
      {"measurement": "Activity", "setting": "[23]", "result": "Active"},
      {"measurement": "EC50", "setting": "[24]", "result": "> 10", "unit": "µM"},
      {"measurement": "Drug metabolism", "setting": "[25]", "result": "Metabolite_Notdetected"},
      {"measurement": "Drug recovery", "setting": "[26]", "result": 1536, "unit": "ngequiv/g"}
    ]}
  ]
}
